Experimental data published in PubChem BioAssay AID2060621 (Molecular Pharmacology Branch, DTP, NCI, 2025).
Several values for one entry are separate records, joined by “and”; a condition that tells them apart may be missing. Identical values can stand only once. One block for each compound: values may come before it.

Tested on: 324938-238-R-J1-PDC complex spheroids viability
Assay: Anticancer human tumor 324938-238-R-J1-PDC patient-derived bladder carcinoma cell line growth inhibition [CLK]
Details: for viability, T/C: stronger effect = lower value
Method in brief: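 Multi-cell-type spheroids combined patient-derived tumor cells with HUVEC endothelial cells and human mesenchymal stem cells. Paired agents were dosed in half-log steps down from about clinical Cmax, or from 10 microM where Cmax was unknown.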

[1] = curve of first compound, second compound 0.0316 µM
[2] = curve of first compound, second compound 0.1 µM
[3] = curve of first compound, second compound 0.316 µM
[4] = curve of first compound, second compound 1 µM
[5] = curve of first compound, second compound 3.16 µM
[6] = curve of first compound, second compound 10 µM
[7] = second compound 0.0316 µM, first compound 0.0316 µM
[8] = second compound 0.0316 µM, first compound 0.1 µM
[9] = second compound 0.0316 µM, first compound 0.316 µM
[10] = second compound 0.0316 µM, first compound 1 µM
[11] = second compound 0.1 µM, first compound 0.0316 µM
[12] = second compound 0.1 µM, first compound 0.1 µM
[13] = second compound 0.1 µM, first compound 0.316 µM
[14] = second compound 0.1 µM, first compound 1 µM
[15] = second compound 0.316 µM, first compound 0.0316 µM
[16] = second compound 0.316 µM, first compound 0.1 µM
[17] = second compound 0.316 µM, first compound 0.316 µM
[18] = second compound 0.316 µM, first compound 1 µM
[19] = second compound 1 µM, first compound 0.0316 µM
[20] = second compound 1 µM, first compound 0.1 µM
[21] = second compound 1 µM, first compound 0.316 µM
[22] = second compound 1 µM, first compound 1 µM
[23] = second compound 3.16 µM, first compound 0.0316 µM
[24] = second compound 3.16 µM, first compound 0.1 µM
[25] = second compound 3.16 µM, first compound 0.316 µM
[26] = second compound 3.16 µM, first compound 1 µM
[27] = second compound 10 µM, first compound 0.0316 µM
[28] = second compound 10 µM, first compound 0.1 µM
[29] = second compound 10 µM, first compound 0.316 µM
[30] = second compound 10 µM, first compound 1 µM
[31] = second compound 0.0316 µM, first compound 3.16 µM
[32] = second compound 0.0316 µM, first compound 10 µM
[33] = second compound 0.1 µM, first compound 3.16 µM
[34] = second compound 0.1 µM, first compound 10 µM
[35] = second compound 0.316 µM, first compound 3.16 µM
[36] = second compound 0.316 µM, first compound 10 µM
[37] = second compound 1 µM, first compound 3.16 µM
[38] = second compound 1 µM, first compound 10 µM
[39] = second compound 3.16 µM, first compound 3.16 µM
[40] = second compound 3.16 µM, first compound 10 µM
[41] = second compound 10 µM, first compound 3.16 µM
[42] = second compound 10 µM, first compound 10 µM
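Further: viability read after seven days of drug exposure.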
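Wherever viability, T/C is given: 100% = DMSO vehicle control wells.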

- IC50 [1]: < 3.16 nM
- IC50 [2]: < 3.16 nM
- IC50 [3]: < 3.16 nM
- IC50 [4]: < 3.16 nM
- IC50 [5]: < 3.16 nM
- IC50 [6]: < 3.16 nM
Compound: CCc1c2c(nc3ccc(O)cc13)-c1cc3c(c(=O)n1C2)COC(=O)[C@]3(O)CC + CNC(=O)c1ccc(Nc2nc(OC3CCCC3)c3c(-c4ccc5nc(C)oc5c4)c[nH]c3n2)c(OC)c1
- viability, T/C (second compound 0.0316 µM, first compound 0.00316 µM): 17.9%
- viability, T/C (second compound 0.0316 µM, first compound 0.01 µM): 12.3%
- viability, T/C [7]: 12.7%
- viability, T/C [8]: 13%
- viability, T/C [9]: 11.2%
- viability, T/C [10]: 2.24%
- viability, T/C (second compound 0.1 µM, first compound 0.00316 µM): 17.9%
- viability, T/C (second compound 0.1 µM, first compound 0.01 µM): 13.3%
- viability, T/C [11]: 12.5%
- viability, T/C [12]: 12.7%
- viability, T/C [13]: 11.3%
- viability, T/C [14]: 2.05%
- viability, T/C (second compound 0.316 µM, first compound 0.00316 µM): 14.6%
- viability, T/C (second compound 0.316 µM, first compound 0.01 µM): 11.1%
- viability, T/C [15]: 11.8%
- viability, T/C [16]: 12.1%
- viability, T/C [17]: 9.98%
- viability, T/C [18]: 1.99%
- viability, T/C (second compound 1 µM, first compound 0.00316 µM): 12.2%
- viability, T/C (second compound 1 µM, first compound 0.01 µM): 9.22%
- viability, T/C [19]: 10.1%
- viability, T/C [20]: 8.69%
- viability, T/C [21]: 8.5%
- viability, T/C [22]: 1.33%
- viability, T/C (second compound 3.16 µM, first compound 0.00316 µM): 11.4%
- viability, T/C (second compound 3.16 µM, first compound 0.01 µM): 9.74%
- viability, T/C [23]: 8.18%
- viability, T/C [24]: 8%
- viability, T/C [25]: 6.57%
- viability, T/C [26]: 1.29%
- viability, T/C (second compound 10 µM, first compound 0.00316 µM): 10.2%
- viability, T/C (second compound 10 µM, first compound 0.01 µM): 10.8%
- viability, T/C [27]: 8.22%
- viability, T/C [28]: 8.16%
- viability, T/C [29]: 6.28%
- viability, T/C [30]: 1.01%

- IC50 [1]: 3770 nM
- IC50 [2]: < 31.6 nM
- IC50 [3]: < 31.6 nM
- IC50 [4]: < 31.6 nM
- IC50 [5]: < 31.6 nM
- IC50 [6]: < 31.6 nM
Compound: COc1ccc([C@@H](O)c2cc(-c3ncnc4cc(N5CCOCC5)ccc34)c(F)cc2Cl)nn1 + CNC(=O)c1ccc(Nc2nc(OC3CCCC3)c3c(-c4ccc5nc(C)oc5c4)c[nH]c3n2)c(OC)c1
- viability, T/C [7]: 86.8%
- viability, T/C [8]: 76.4%
- viability, T/C [9]: 70.3%
- viability, T/C [10]: 63.5%
- viability, T/C [31]: 56.5%
- viability, T/C [32]: 35.9%
- viability, T/C [11]: 27.6%
- viability, T/C [12]: 26.3%
- viability, T/C [13]: 22.9%
- viability, T/C [14]: 28%
- viability, T/C [33]: 29%
- viability, T/C [34]: 22.7%
- viability, T/C [15]: 18.5%
- viability, T/C [16]: 20.5%
- viability, T/C [17]: 17.9%
- viability, T/C [18]: 16.5%
- viability, T/C [35]: 14.6%
- viability, T/C [36]: 16.1%
- viability, T/C [19]: 16%
- viability, T/C [20]: 14.5%
- viability, T/C [21]: 16%
- viability, T/C [22]: 14.8%
- viability, T/C [37]: 12.9%
- viability, T/C [38]: 11.2%
- viability, T/C [23]: 18.1%
- viability, T/C [24]: 14.2%
- viability, T/C [25]: 16.2%
- viability, T/C [26]: 14.7%
- viability, T/C [39]: 14.9%
- viability, T/C [40]: 9.35%
- viability, T/C [27]: 15.6%
- viability, T/C [28]: 16.7%
- viability, T/C [29]: 16.9%
- viability, T/C [30]: 16.8%
- viability, T/C [41]: 11.1%
- viability, T/C [42]: 12.1%

Compound: CC1(C)CCC(CN2CCN(c3ccc(C(=O)NS(=O)(=O)c4ccc(NCC5CCOCC5)c([N+](=O)[O-])c4)c(Oc4cnc5[nH]ccc5c4)c3)CC2)=C(c2ccc(Cl)cc2)C1 + CN1CCN(c2cc(C(=O)Nc3cc4cc(-c5cnn(C)c5)ccc4cn3)ccn2)CC1
- IC50 [1]: 6720 nM
- IC50 [2]: 1480 nM
- IC50 [3]: < 31.6 nM
- IC50 [4]: < 31.6 nM
- IC50 [5]: < 31.6 nM
- IC50 [6]: < 31.6 nM
- viability, T/C [7]: 79.6%
- viability, T/C [8]: 90.2%
- viability, T/C [9]: 80.3%
- viability, T/C [10]: 81%
- viability, T/C [31]: 82.8%
- viability, T/C [32]: 32.7%
- viability, T/C [11]: 51.9%
- viability, T/C [12]: 55.4%
- viability, T/C [13]: 47.4%
- viability, T/C [14]: 54.9%
- viability, T/C [33]: 46.2%
- viability, T/C [34]: 26.4%
- viability, T/C [15]: 25.2%
- viability, T/C [16]: 22.9%
- viability, T/C [17]: 19%
- viability, T/C [18]: 24.8%
- viability, T/C [35]: 21.5%
- viability, T/C [36]: 11.6%
- viability, T/C [19]: 1.53%
- viability, T/C [20]: 1.38%
- viability, T/C [21]: 1.4%
- viability, T/C [22]: 1.48%
- viability, T/C [37]: 1.08%
- viability, T/C [38]: 0.34%
- viability, T/C [23]: 0.12%
- viability, T/C [24]: 0.21%
- viability, T/C [25]: 0.14%
- viability, T/C [26]: 0.14%
- viability, T/C [39]: 0.11%
- viability, T/C [40]: 0.16%
- viability, T/C [27]: 0.12%
- viability, T/C [28]: 0.16%
- viability, T/C [29]: 0.16%
- viability, T/C [30]: 0.14%
- viability, T/C [41]: 0.19%
- viability, T/C [42]: 0.19%

- IC50 (curve of compound): 2920 nM and 1470 nM
Compound: C#Cc1c(F)ccc2cc(O)cc(-c3ncc4c(N5CC6CCC(C5)N6)nc(OCC56CCCN5CC(F)C6)nc4c3F)c12 (stereo not given)
- viability, T/C (compound 0.0316 µM): 80% and 86.4%
- viability, T/C (compound 0.1 µM): 69.2% and 79.7%
- viability, T/C (compound 0.316 µM): 56.7% and 70%
- viability, T/C (compound 1 µM): 64.9% and 53.9%
- viability, T/C (compound 3.16 µM): 48.4% and 41.9%
- viability, T/C (compound 10 µM): 41.9% and 38%

- IC50 (curve of compound): 45.5 nM and 43.6 nM
Compound: NC(=O)C(=Cn1cnc(-c2cc(C(F)(F)F)cc(C(F)(F)F)c2)n1)c1cncnc1
- viability, T/C (compound 0.00949 µM): 70.3% and 65.1%
- viability, T/C (compound 0.03 µM): 56.4% and 61.5%
- viability, T/C (compound 0.0949 µM): 37.4% and 29.3%
- viability, T/C (compound 0.3 µM): 12.4% and 14%
- viability, T/C (compound 0.949 µM): 5.43% and 5.85%
- viability, T/C (compound 3 µM): 3.14% and 2.78%
